Where two headings read alike, the source gives them in different places.
What was measured:
[1] = Stability of cannabinoid and Vitamin E components of Beverage 2 (AB Red) stored at 8° C. and 21-25° C., LCMSMS over 570 days
Experimental: The LCMSMS was calibrated for 0-50 ng/ml cannabinoids with the same resin material used in the preparation of the concentrates. At each time period, 100 μml of beverage was diluted with 10 ml of methanol and injected into the LCMSMS for analysis.

[2] = assay type: physicochemical; conditions: stored at room temperature (21-25° C.)
Experimental: At each time period, 0.05 g of powder was dissolved in 10 ml-15 of ethanol, diluted to fall within the analytical range, and injected into the LCMSMS for analysis.

CCCCCc1cc(O)c2c(c1)OC(C)(C)c1ccc(C)cc1-2 [CBN, cannabinol]
Stability of Cannabinoids in AB Red ([1]; 8° C., 0 days): 2.81 µg/mL
Stability of Cannabinoids in AB Red ([1]; 8° C., 1 days): 2.82 µg/mL
Stability of Cannabinoids in AB Red ([1]; 8° C., 2 days): 2.74 µg/mL
Stability of Cannabinoids in AB Red ([1]; 8° C., 3 days): 2.83 µg/mL
Stability of Cannabinoids in AB Red ([1]; 8° C., 5 days): 2.78 µg/mL
Stability of Cannabinoids in AB Red ([1]; 8° C., 8 days): 2.80 µg/mL
Stability of Cannabinoids in AB Red ([1]; 8° C., 9 days): 2.74 µg/mL
Stability of Cannabinoids in AB Red ([1]; 8° C., 10 days): 2.79 µg/mL
Stability of Cannabinoids in AB Red ([1]; 8° C., 11 days): 2.73 µg/mL
Stability of Cannabinoids in AB Red ([1]; 8° C., 12 days): 2.76 µg/mL
Stability of Cannabinoids in AB Red ([1]; 8° C., 15 days): 2.77 µg/mL
Stability of Cannabinoids in AB Red ([1]; 8° C., 16 days): 2.83 µg/mL
Stability of Cannabinoids in AB Red ([1]; 8° C., 17 days): 2.80 µg/mL
Stability of Cannabinoids in AB Red ([1]; 8° C., 18 days): 2.78 µg/mL
Stability of Cannabinoids in AB Red ([1]; 8° C., 19 days): 2.78 µg/mL
Stability of Cannabinoids in AB Red ([1]; 8° C., 22 days): 2.73 µg/mL
Stability of Cannabinoids in AB Red ([1]; 8° C., 23 days): 2.79 µg/mL
Stability of Cannabinoids in AB Red ([1]; 8° C., 24 days): 2.76 µg/mL
Stability of Cannabinoids in AB Red ([1]; 8° C., 25 days): 2.83 µg/mL
Stability of Cannabinoids in AB Red ([1]; 8° C., 26 days): 2.79 µg/mL
Stability of Cannabinoids in AB Red ([1]; 8° C., 29 days): 2.77 µg/mL
Stability of Cannabinoids in AB Red ([1]; 8° C., 30 days): 2.77 µg/mL
Stability of Cannabinoids in AB Red ([1]; 8° C., 60 days): 2.73 µg/mL
Stability of Cannabinoids in AB Red ([1]; 8° C., 90 days): 2.80 µg/mL
Stability of Cannabinoids in AB Red ([1]; 8° C., 120 days): 2.69 µg/mL
Stability of Cannabinoids in AB Red ([1]; 8° C., 150 days): 2.69 µg/mL
Stability of Cannabinoids in AB Red ([1]; 8° C., 180 days): 2.74 µg/mL
Stability of Cannabinoids in AB Red ([1]; 8° C., 210 days): 2.69 µg/mL
Stability of Cannabinoids in AB Red ([1]; 8° C., 240 days): 2.74 µg/mL
Stability of Cannabinoids in AB Red ([1]; 8° C., 270 days): 2.76 µg/mL
Stability of Cannabinoids in AB Red ([1]; 8° C., 300 days): 2.75 µg/mL
Stability of Cannabinoids in AB Red ([1]; 8° C., 330 days): 2.71 µg/mL
Stability of Cannabinoids in AB Red ([1]; 8° C., 390 days): 2.72 µg/mL
Stability of Cannabinoids in AB Red ([1]; 8° C., 420 days): 2.69 µg/mL
Stability of Cannabinoids in AB Red ([1]; 8° C., 450 days): 2.71 µg/mL
Stability of Cannabinoids in AB Red ([1]; 8° C., 480 days): 2.66 µg/mL
Stability of Cannabinoids in AB Red ([1]; 8° C., 510 days): 2.62 µg/mL
Stability of Cannabinoids in AB Red ([1]; 8° C., 540 days): 2.60 µg/mL
Stability of Cannabinoids in AB Red ([1]; 8° C., 570 days): 2.58 µg/mL
Stability of Cannabinoids in AB Red ([1]; 21-25° C., 0 days): 2.81 µg/mL
Stability of Cannabinoids in AB Red ([1]; 21-25° C., 1 days): 2.73 µg/mL
Stability of Cannabinoids in AB Red ([1]; 21-25° C., 2 days): 2.83 µg/mL
Stability of Cannabinoids in AB Red ([1]; 21-25° C., 3 days): 2.78 µg/mL
Stability of Cannabinoids in AB Red ([1]; 21-25° C., 5 days): 2.71 µg/mL
Stability of Cannabinoids in AB Red ([1]; 21-25° C., 8 days): 2.74 µg/mL
Stability of Cannabinoids in AB Red ([1]; 21-25° C., 9 days): 2.72 µg/mL
Stability of Cannabinoids in AB Red ([1]; 21-25° C., 10 days): 2.73 µg/mL
Stability of Cannabinoids in AB Red ([1]; 21-25° C., 11 days): 2.83 µg/mL
Stability of Cannabinoids in AB Red ([1]; 21-25° C., 12 days): 2.70 µg/mL
Stability of Cannabinoids in AB Red ([1]; 21-25° C., 15 days): 2.77 µg/mL
Stability of Cannabinoids in AB Red ([1]; 21-25° C., 16 days): 2.81 µg/mL
Stability of Cannabinoids in AB Red ([1]; 21-25° C., 17 days): 2.74 µg/mL
Stability of Cannabinoids in AB Red ([1]; 21-25° C., 18 days): 2.80 µg/mL
Stability of Cannabinoids in AB Red ([1]; 21-25° C., 19 days): 2.70 µg/mL
Stability of Cannabinoids in AB Red ([1]; 21-25° C., 22 days): 2.70 µg/mL
Stability of Cannabinoids in AB Red ([1]; 21-25° C., 23 days): 2.82 µg/mL
Stability of Cannabinoids in AB Red ([1]; 21-25° C., 24 days): 2.78 µg/mL
Stability of Cannabinoids in AB Red ([1]; 21-25° C., 25 days): 2.84 µg/mL
Stability of Cannabinoids in AB Red ([1]; 21-25° C., 26 days): 2.70 µg/mL
Stability of Cannabinoids in AB Red ([1]; 21-25° C., 29 days): 2.78 µg/mL
Stability of Cannabinoids in AB Red ([1]; 21-25° C., 30 days): 2.77 µg/mL
Stability of Cannabinoids in AB Red ([1]; 21-25° C., 60 days): 2.78 µg/mL
Stability of Cannabinoids in AB Red ([1]; 21-25° C., 90 days): 2.75 µg/mL
Stability of Cannabinoids in AB Red ([1]; 21-25° C., 120 days): 2.77 µg/mL
Stability of Cannabinoids in AB Red ([1]; 21-25° C., 150 days): 2.75 µg/mL
Stability of Cannabinoids in AB Red ([1]; 21-25° C., 180 days): 2.70 µg/mL
Stability of Cannabinoids in AB Red ([1]; 21-25° C., 210 days): 2.70 µg/mL
Stability of Cannabinoids in AB Red ([1]; 21-25° C., 240 days): 2.73 µg/mL
Stability of Cannabinoids in AB Red ([1]; 21-25° C., 270 days): 2.73 µg/mL
Stability of Cannabinoids in AB Red ([1]; 21-25° C., 300 days): 2.70 µg/mL
Stability of Cannabinoids in AB Red ([1]; 21-25° C., 330 days): 2.75 µg/mL
Stability of Cannabinoids in AB Red ([1]; 21-25° C., 390 days): 2.65 µg/mL
Stability of Cannabinoids in AB Red ([1]; 21-25° C., 420 days): 2.64 µg/mL
Stability of Cannabinoids in AB Red ([1]; 21-25° C., 450 days): 2.68 µg/mL
Stability of Cannabinoids in AB Red ([1]; 21-25° C., 480 days): 2.58 µg/mL
Stability of Cannabinoids in AB Red ([1]; 21-25° C., 510 days): 2.66 µg/mL
Stability of Cannabinoids in AB Red ([1]; 21-25° C., 540 days): 2.65 µg/mL
Stability of Cannabinoids in AB Red ([1]; 21-25° C., 570 days): 2.58 µg/mL
Stability in Powder Concentrate (content by LCMSMS) ([2]; day 0): 0.480 mg/g powder
Stability in Powder Concentrate (content by LCMSMS) ([2]; day 1): 0.471 mg/g powder
Stability in Powder Concentrate (content by LCMSMS) ([2]; day 2): 0.488 mg/g powder
Stability in Powder Concentrate (content by LCMSMS) ([2]; day 3): 0.474 mg/g powder
Stability in Powder Concentrate (content by LCMSMS) ([2]; day 5): 0.491 mg/g powder
Stability in Powder Concentrate (content by LCMSMS) ([2]; day 8): 0.469 mg/g powder
Stability in Powder Concentrate (content by LCMSMS) ([2]; day 9): 0.466 mg/g powder
Stability in Powder Concentrate (content by LCMSMS) ([2]; day 10): 0.499 mg/g powder
Stability in Powder Concentrate (content by LCMSMS) ([2]; day 11): 0.494 mg/g powder
Stability in Powder Concentrate (content by LCMSMS) ([2]; day 12): 0.496 mg/g powder
Stability in Powder Concentrate (content by LCMSMS) ([2]; day 15): 0.472 mg/g powder
Stability in Powder Concentrate (content by LCMSMS) ([2]; day 16): 0.483 mg/g powder
Stability in Powder Concentrate (content by LCMSMS) ([2]; day 17): 0.465 mg/g powder
Stability in Powder Concentrate (content by LCMSMS) ([2]; day 18): 0.470 mg/g powder
Stability in Powder Concentrate (content by LCMSMS) ([2]; day 19): 0.490 mg/g powder
Stability in Powder Concentrate (content by LCMSMS) ([2]; day 22): 0.486 mg/g powder
Stability in Powder Concentrate (content by LCMSMS) ([2]; day 23): 0.469 mg/g powder
Stability in Powder Concentrate (content by LCMSMS) ([2]; day 24): 0.465 mg/g powder
Stability in Powder Concentrate (content by LCMSMS) ([2]; day 25): 0.486 mg/g powder
Stability in Powder Concentrate (content by LCMSMS) ([2]; day 26): 0.486 mg/g powder
Stability in Powder Concentrate (content by LCMSMS) ([2]; day 29): 0.484 mg/g powder
Stability in Powder Concentrate (content by LCMSMS) ([2]; day 30): 0.476 mg/g powder
Stability in Powder Concentrate (content by LCMSMS) ([2]; day 60): 0.489 mg/g powder
Stability in Powder Concentrate (content by LCMSMS) ([2]; day 90): 0.483 mg/g powder
Stability in Powder Concentrate (content by LCMSMS) ([2]; day 120): 0.498 mg/g powder
Stability in Powder Concentrate (content by LCMSMS) ([2]; day 150): 0.500 mg/g powder
Stability in Powder Concentrate (content by LCMSMS) ([2]; day 180): 0.464 mg/g powder
Stability in Powder Concentrate (content by LCMSMS) ([2]; day 210): 0.501 mg/g powder
Stability in Powder Concentrate (content by LCMSMS) ([2]; day 240): 0.467 mg/g powder
Stability in Powder Concentrate (content by LCMSMS) ([2]; day 270): 0.464 mg/g powder
Stability in Powder Concentrate (content by LCMSMS) ([2]; day 300): 0.469 mg/g powder
Stability in Powder Concentrate (content by LCMSMS) ([2]; day 330): 0.502 mg/g powder
Stability in Powder Concentrate (content by LCMSMS) ([2]; day 360): 0.499 mg/g powder
Stability in Powder Concentrate (content by LCMSMS) ([2]; day 390): 0.479 mg/g powder
Stability in Powder Concentrate (content by LCMSMS) ([2]; day 420): 0.481 mg/g powder
Stability in Powder Concentrate (content by LCMSMS) ([2]; day 450): 0.480 mg/g powder
Stability in Powder Concentrate (content by LCMSMS) ([2]; day 480): 0.485 mg/g powder
Stability in Powder Concentrate (content by LCMSMS) ([2]; day 510): 0.499 mg/g powder
Stability in Powder Concentrate (content by LCMSMS) ([2]; day 540): 0.492 mg/g powder
Stability in Powder Concentrate (content by LCMSMS) ([2]; day 570): 0.471 mg/g powder

Source: patent publication US20240415914A1, “Water Dispersible Cannabinoid Compositions” (priority 2021, published 2024)
